# According to patent US20060094695A1, “Hypoestoxides, derivatives and agonists thereof for use in the prophylaxis and treatment of obesity” (Paraquest, Inc., priority 2004, published 2006):
# Experiments:
# [1] = test system: C57BL/6J-Lep^ob mice; experiment: Prevention of Obesity in Mice (Table 1); assay type: in vivo; details: 4-week-old female mice, in g
# Experimental: The ability of hypoestoxides and hypoestes rosea dried leaf powder to prevent obesity was studied. Hypoestoxide and hypoestes rosea dried leaf powder was administered to C57BL/6J-Lep^ob mice. The mice are homozygous for the obese spontaneous mutation and are first recognizable as such at approximately 4 weeks of age. At 4 weeks, the mice weigh 20-25 grams, and may reach three to four times the weight of wild-type mice. Three 4-week-old female mice were placed in each of four treatment conditions, for a total of twelve mice in the study: (i) control; (ii) hypoestoxide was administered orally at a dose of 10 mg/kg; (iii) hypoestoxide was administered orally at a dose of 100 mg/kg; or (iv) hypoestes dried leaf powder was administered orally at a dose of 100 mg/kg. Treatments were administered once a day and the study continued for 21 days.
# [2] = test system: C57BL/6J-Lep^ob mice; experiment: Treatment of Obesity in Mice (Table 2); assay type: in vivo; details: 10 mg/kg orally once a day for 50 days, approx. 4 months old, one mouse
# Experimental: Treatment of obesity with hypoestoxide and hypoestes rosea dried leaf powder was also studied. Hypoestoxide and hypoestes rosea dried leaf powder was administered to C57BL/6J-Lep^ob mice. The mice were treated at approximately 4 months of age at a weight of approximately 50 grams. One mouse was placed in each of three treatment conditions: (i) control; (ii) hypoestoxide was administered orally at a dose of 10 mg/kg; or (iii) hypoestes dried leaf powder was administered orally at a dose of 100 mg/kg. Treatments were administered once a day, with hypoestoxide treatment lasting 50 days and hypoestes dried leaf powder treatment lasting 21 days.
structure (smiles),measurement,setting,value
"C=C1C(=O)C[C@H]2C[C@@H]3O[C@@]3(C)CC[C@@H]3O[C@@]3(C)C[C@@H](OC(C)=O)[C@H]1C2(C)C [Hypoestoxide, hypoestoxide]","weight of mice, Prevention of Obesity in Mice",[1]; 10 mg/kg orally once a day for 21 days,41.6 ± 2.0
same,"weight of mice, Prevention of Obesity in Mice",[1]; 100 mg/kg orally once a day for 21 days,40.0 ± 1.5
same,"weight of mice, Prevention of Obesity in Mice","[1]; day 7, 10 mg/kg orally once a day for 21 days",19.6 ± 2.0
same,"weight of mice, Prevention of Obesity in Mice","[1]; day 7, 100 mg/kg orally once a day for 21 days",20.9 ± 1.2
same,"weight of mice, Prevention of Obesity in Mice","[1]; day 14, 10 mg/kg orally once a day for 21 days",25.4 ± 1.6
same,"weight of mice, Prevention of Obesity in Mice","[1]; day 14, 100 mg/kg orally once a day for 21 days",23.8 ± 0.6
same,"weight of mice, Prevention of Obesity in Mice","[1]; day 21, 10 mg/kg orally once a day for 21 days",27.5 ± 1.5
same,"weight of mice, Prevention of Obesity in Mice","[1]; day 21, 100 mg/kg orally once a day for 21 days",27.0 ± 0.8
same,"weight of mice, Prevention of Obesity in Mice","[1]; day 28, 10 mg/kg orally once a day for 21 days",28.8 ± 2.3
same,"weight of mice, Prevention of Obesity in Mice","[1]; day 28, 100 mg/kg orally once a day for 21 days",26.4 ± 2.2
same,"weight of mice, Prevention of Obesity in Mice","[1]; day 35, 10 mg/kg orally once a day for 21 days",30.3 ± 3.2
same,"weight of mice, Prevention of Obesity in Mice","[1]; day 35, 100 mg/kg orally once a day for 21 days",29.0 ± 2.9
same,"weight of mice, Prevention of Obesity in Mice","[1]; day −1 (before treatment), group 10 mg/kg orally once a day for 21 days",21.0 ± 1.4
same,"weight of mice, Prevention of Obesity in Mice","[1]; day −1 (before treatment), group 100 mg/kg orally once a day for 21 days",24.3 ± 1.1
same,"weight of mouse, Treatment of Obesity in Mice",[2]; day 7,53 g
same,"weight of mouse, Treatment of Obesity in Mice",[2]; day 14,51.5 g
same,"weight of mouse, Treatment of Obesity in Mice",[2]; day 21,51 g
same,"weight of mouse, Treatment of Obesity in Mice",[2]; day 28,50.4 g
same,"weight of mouse, Treatment of Obesity in Mice",[2]; day 35,50 g
same,"weight of mouse, Treatment of Obesity in Mice",[2]; day 160,69.8 g
same,"weight of mouse, Treatment of Obesity in Mice",[2]; day −1 (before treatment),53 g
